Results published in patent publication US20090197960A1, “Method of Inhibiting Polyneuropathic Pain with 3-(2-Dimethylaminomethylcyclohexyl) Phenol” (Gruenenthal GmbH, priority 2008, published 2009).

Key:
[1] = test system: cold allodynia in polyneuropathic pain; assay: Polyneuropathic pain model according to Authier (vincristine-induced), cold allodynia with acetone drop; assay type: in vivo, Sprague Dawley rats
Procedure: (§1) Male Sprague Dawley rats (140-180 g, Janvier, France) were kept under standard conditions (06.00-18.00 light, 18.00-06.00 darkness; 20-24° C. room temperature, 35-70% relative humidity; tap water and standard feed (ad libitum)) in groups of five animals in Macrolon type 4 cages.
The investigation was carried out according to Authier et al., Neuroreport, 1999, 10, 965-8.
Three days after the final vincristine treatment, the animals had developed hypersensitivity to cold (cold allodynia) which continued over a period of three weeks. For testing, the animals were placed under a plastic cover on a grating and, after habituation, cold allodynia was quantified. To this end, a drop of acetone (10 μl) was carefully applied onto a hind paw with a syringe and a thin plastic tube. The number of induced withdrawal responses (shaking, stamping or licking) was recorded over a period of 30 sec. The cumulative number from 5 stimulations (at 5 min intervals from one another) was determined before and at different times after administration of the substance or the vehicle. The percentage inhibition value (% MPE) was determined in comparison with the particular pretest (0% MPE) and with the weekly vehicle control group (100% MPE=0 withdrawal responses). The size of the group was usually n=10. The significance of a substance's action was determined on the basis of the percentage inhibition value relative to the vehicle group by means of bifactorial analysis of variance and post hoc Bonferroni analysis, the ED50 value by linear regression analysis for the individual measurement points.

[2] = test system: cold allodynia in mononeuropathic pain; assay: Mononeuropathic pain model according to Bennett (ischial nerve ligatures), cold allodynia on cold metal plate at 4° C.; assay type: in vivo, Sprague Dawley rats
Procedure: as §1
The investigation was carried out according to Bennett et al., Pain, 1988, 33, 87-107.
Under pentobarbital anaesthesia (Narcocen, 60 mg/kg i.p., Merial GmbH, Germany), four loose ligatures were placed unilaterally on the right ischial nerve. On the paw innervated by the damaged nerve, the animals developed hypersensitivity which, after one week's convalescence, was quantified over a period of approx. four weeks using a cold metal plate at 4° C. (cold allodynia). The animals were observed on this plate for a period of 2 min. and the number of withdrawal responses by the damaged paw was measured. The action of the substance, relative to the preliminary value before administration of the substance, was determined over a period of one hour at four different times (15, 30, 45, 60 min after administration). The inhibition of cold allodynia at the individual measurement times was stated in percent relative to the individual pretest (% MPE), with the pretest corresponding to 0% MPE and complete inhibition (0 withdrawal responses per 2 min) to 100% MPE. Group size was n=10. The significance of a substance's action was determined on the basis of the percentage inhibition values relative to the vehicle group by bifactorial analysis of variance and post hoc Bonferroni analysis, the ED50 value by linear regression analysis for the individual measurement points or the area under the curve (AUC).

[3] = test system: pain in diabetic polyneuropathy; conditions: number of patients treated for one patient to experience more than 50% pain relief; cited from earlier work
[4] = test system: pain in post-herpetic neuralgia; conditions: number of patients treated for one patient to experience more than 50% pain relief; cited from earlier work

Compound: CN(C)C[C@@H]1CCCC[C@H]1c1cccc(O)c1 [(1R,2R)-3-(2-Dimethylaminomethylcyclohexyl)phenol]
- dose of significant inhibition, mononeuropathic versus polyneuropathic pain model ([1]; 21.5 mg/kg i.p. versus 4.64 mg/kg i.p.): more than four times higher
- inhibition of cold allodynia (in words) ([1]; 10-21.5 mg/kg i.p.): dose-dependent inhibition
- maximum effect ([1]; 30 min after administration of 21.5 mg/kg): 74 % MPE
- ED50 ([1]; Rattus norvegicus, ip, 0.5 h, 30 min after administration, i.p., polyneuropathic pain model, read-out: ED50 value (95% VB)): 5.7 mg/kg
- efficacy in polyneuropathic pain relative to mononeuropathic pain in an animal model ([1]; animal model): approx. four times greater
- inhibition of cold allodynia, Mean ([1]; dose 2.15 (mg/kg i.p.), 30 min): 48.4 % MPE
- inhibition of cold allodynia, Mean ([1]; dose 2.15 (mg/kg i.p.), 180 min): −37.7 % MPE
- inhibition of cold allodynia, Mean ([1]; dose 4.64 (mg/kg i.p.), 30 min): 67.9 % MPE
- inhibition of cold allodynia, Mean ([1]; dose 4.64 (mg/kg i.p.), 180 min): 22.6 % MPE
- inhibition of cold allodynia, Mean ([1]; dose 10 (first dose line of the table, i.p.), 30 min): −28.9 % MPE
- inhibition of cold allodynia, Mean ([1]; dose 10 (first dose line of the table, i.p.), 180 min): −22.2 % MPE
- inhibition of cold allodynia, Mean ([1]; dose 10 (fourth dose line of the table, mg/kg i.p.), 30 min): 58.7 % MPE
- inhibition of cold allodynia, Mean ([1]; dose 10 (fourth dose line of the table, mg/kg i.p.), 180 min): 20.8 % MPE
- inhibition of cold allodynia, Mean ([1]; dose 21.5 (mg/kg i.p.), 30 min): 74.2 % MPE
- inhibition of cold allodynia, Mean ([1]; dose 21.5 (mg/kg i.p.), 180 min): 15.2 % MPE
- minimally active dose at which a statistically significant inhibition was obtained ([1]; i.p., polyneuropathic pain model): 4.64 mg/kg
- inhibition of cold allodynia (in words) ([2]; 10-31.6 mg/kg i.p.): dose-dependent inhibition
- maximum effect ([2]; 15 min after administration of 31.6 mg/kg): 80 % MPE
- ED50 ([2]; Rattus norvegicus, ip, 0.5 h, 30 min after administration, i.p., mononeuropathic pain model, read-out: ED50 value (95% VB)): 17.6 mg/kg
- inhibition of cold allodynia, Mean ([2]; dose 10 (mg/kg i.p.), 15 min after administration): 22.16 % MPE
- inhibition of cold allodynia, Mean ([2]; dose 10 (mg/kg i.p.), 30 min after administration): 20.93 % MPE
- inhibition of cold allodynia, Mean ([2]; dose 10 (mg/kg i.p.), 45 min after administration): 8.60 % MPE
- inhibition of cold allodynia, Mean ([2]; dose 10 (mg/kg i.p.), 60 min after administration): 9.23 % MPE
- inhibition of cold allodynia, Mean ([2]; dose 21.5 (mg/kg i.p.), 15 min after administration): 56.62 % MPE
- inhibition of cold allodynia, Mean ([2]; dose 21.5 (mg/kg i.p.), 30 min after administration): 61.06 % MPE
- inhibition of cold allodynia, Mean ([2]; dose 21.5 (mg/kg i.p.), 45 min after administration): 34.96 % MPE
- inhibition of cold allodynia, Mean ([2]; dose 21.5 (mg/kg i.p.), 60 min after administration): 16.33 % MPE
- inhibition of cold allodynia, Mean ([2]; dose 31.6 (mg/kg i.p.), 15 min after administration): 80.03 % MPE
- inhibition of cold allodynia, Mean ([2]; dose 31.6 (mg/kg i.p.), 30 min after administration): 79.15 % MPE
- inhibition of cold allodynia, Mean ([2]; dose 31.6 (mg/kg i.p.), 45 min after administration): 61.68 % MPE
- inhibition of cold allodynia, Mean ([2]; dose 31.6 (mg/kg i.p.), 60 min after administration): 21.18 % MPE
- minimally active dose at which a statistically significant inhibition was obtained ([2]; i.p., mononeuropathic pain model): 21.5 mg/kg

Compound: COc1cc(CNC(=O)CCCC/C=C/C(C)C)ccc1O [Capsaicin]
- NNT (Numbers Needed to Treat) [3]: 5.9
- NNT (Numbers Needed to Treat) [4]: 5.3

Compound: NC(=O)N1c2ccccc2C=Cc2ccccc21 [Carbamazepine]
- NNT (Numbers Needed to Treat) [3]: 3.3

Compound: NCC1(CC(=O)O)CCCCC1 [Gabapentin]
- NNT (Numbers Needed to Treat) [3]: 3.7
- NNT (Numbers Needed to Treat) [4]: 3.2

Compound: CN(C)CCCN1c2ccccc2CCc2ccccc21 [Imipramine]
- NNT (Numbers Needed to Treat) [3]: 1.4

Compound: N[C@@H](Cc1ccc(O)c(O)c1)C(=O)O [L-Dopa]
- NNT (Numbers Needed to Treat) [3]: 3.4

Compound: Cc1cccc(C)c1OCC(C)N (stereo not shown) [Mexiletine]
- NNT (Numbers Needed to Treat) [3]: 10.0

Compound: COc1ccc2c(c1)[C@]13CCCC[C@@H]1[C@H](C2)N(C)CC3 [Oextromethorphan]
- NNT (Numbers Needed to Treat) [3]: 1.9

Compound: COc1ccc2c3c1O[C@H]1C(=O)CC[C@@]4(O)[C@@H](C2)N(C)CC[C@]314 [Oxycodone]
- NNT (Numbers Needed to Treat) [4]: 2.5

Compound: COc1cccc(C2(O)CCCCC2CN(C)C)c1 (stereo not shown) [Tramadol]
- NNT (Numbers Needed to Treat) [3]: 3.4
